BindingDB's records for patent US20230340011 (Asteroid Therapeutics, 2023)

Tests used:
[1] = biological target: T1, Oxysterols receptor LXR-beta (Homo sapiens, UniProt P55055); assay: In Vitro Assay-LXRβ
T1 sequence (P55055 whole entry): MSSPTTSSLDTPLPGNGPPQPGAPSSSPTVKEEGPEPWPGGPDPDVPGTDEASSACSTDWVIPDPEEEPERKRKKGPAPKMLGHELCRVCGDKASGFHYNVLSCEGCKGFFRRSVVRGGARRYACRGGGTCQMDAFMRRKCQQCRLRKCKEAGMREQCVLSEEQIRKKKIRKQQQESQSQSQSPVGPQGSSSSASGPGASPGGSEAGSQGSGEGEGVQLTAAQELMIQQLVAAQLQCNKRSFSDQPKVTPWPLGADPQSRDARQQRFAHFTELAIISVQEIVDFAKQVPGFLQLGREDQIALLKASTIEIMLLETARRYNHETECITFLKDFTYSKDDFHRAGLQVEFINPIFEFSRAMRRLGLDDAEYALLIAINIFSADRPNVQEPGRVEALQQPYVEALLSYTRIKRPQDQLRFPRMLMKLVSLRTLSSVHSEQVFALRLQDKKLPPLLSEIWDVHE
Protocol: PathHunter NHR CHO cells stably transfected with tagged full-length human LXRβ and a nuclear fusion protein containing Steroid Receptor Co-activator Peptide (SRCP). The full-length human LXRβ was tagged with the ProLink component of the DiscoverX Enzyme Fragment Complementation (EFC) system and the SRCP domain is fused to the enzyme acceptor component (EA) expressed in the nucleus. Cells were seeded in a total volume of 20 μL into white walled, 384-well microplates and incubated at 37 C. overnight prior to testing. Assay media contained charcoal-dextran filtered serum to reduce the level of hormones present. Final assay vehicle concentration was 1%. […] Microplates were read following signal generation with a PerkinElmer Envision instrument for chemiluminescent signal detection.

[2] = biological target: T2, Sterol regulatory element-binding protein 2 (Homo sapiens, UniProt Q12772); assay: In Vitro Assay-SREBP-2
T2 sequence (Q12772 whole entry): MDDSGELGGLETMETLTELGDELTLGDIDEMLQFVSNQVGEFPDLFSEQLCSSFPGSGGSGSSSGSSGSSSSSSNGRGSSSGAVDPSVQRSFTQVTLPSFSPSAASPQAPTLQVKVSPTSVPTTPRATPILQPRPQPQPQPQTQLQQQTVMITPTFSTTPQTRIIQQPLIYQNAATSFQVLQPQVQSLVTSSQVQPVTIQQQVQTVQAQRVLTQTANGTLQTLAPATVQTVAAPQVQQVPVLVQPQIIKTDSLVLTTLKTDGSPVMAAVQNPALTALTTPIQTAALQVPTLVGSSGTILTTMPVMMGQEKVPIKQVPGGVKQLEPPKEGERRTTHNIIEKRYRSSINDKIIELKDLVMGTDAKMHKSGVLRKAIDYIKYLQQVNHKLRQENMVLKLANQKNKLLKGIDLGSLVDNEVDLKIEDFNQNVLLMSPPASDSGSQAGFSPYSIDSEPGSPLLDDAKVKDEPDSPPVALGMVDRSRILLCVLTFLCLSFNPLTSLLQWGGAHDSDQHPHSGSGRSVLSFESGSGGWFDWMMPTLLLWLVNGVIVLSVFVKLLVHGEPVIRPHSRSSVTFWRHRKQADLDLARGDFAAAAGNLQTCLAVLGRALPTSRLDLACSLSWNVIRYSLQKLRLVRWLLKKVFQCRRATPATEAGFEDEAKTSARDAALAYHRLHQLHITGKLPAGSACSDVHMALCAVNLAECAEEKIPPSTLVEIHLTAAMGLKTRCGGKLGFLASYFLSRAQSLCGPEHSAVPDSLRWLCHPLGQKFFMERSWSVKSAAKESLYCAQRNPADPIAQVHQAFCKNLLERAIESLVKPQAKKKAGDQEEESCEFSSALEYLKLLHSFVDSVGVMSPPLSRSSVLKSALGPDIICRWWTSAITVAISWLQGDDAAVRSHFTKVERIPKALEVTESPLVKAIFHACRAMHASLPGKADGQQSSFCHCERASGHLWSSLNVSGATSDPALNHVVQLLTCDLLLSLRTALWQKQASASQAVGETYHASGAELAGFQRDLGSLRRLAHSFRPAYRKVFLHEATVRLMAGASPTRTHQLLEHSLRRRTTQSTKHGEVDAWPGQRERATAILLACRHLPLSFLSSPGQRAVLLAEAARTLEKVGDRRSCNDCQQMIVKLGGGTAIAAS
Protocol: 10,000 cells/well of the PathHunter U2OS SREBP-2 Nuclear Translocation Cell Line are plated in quadruplicate on 384 well plates in 20 μL of AssayComplete cell plating 5 reagent (CP5-high serum) overnight at 37° C./5% CO2. A dilution series of test compound is added to cells, incubated for 1 hour at 37° C./5% CO2, and U18666A (a known SREBP agonist) is added to a final concentration of 10 μM. The plate is incubated overnight (16 hours) at 37° C./5% CO2. PathHunter Flash detection mix is added to the wells, incubated one hour in the dark, and the plate read on an Envision luminometer.

In the case of Cc1cccc(/C=C/[C@@H](C)[C@H]2CC[C@H]3[C@@H]4CC=C5C[C@@H](O)CC[C@]5(C)[C@H]4CC[C@]23C)n1 [US20230340011, Example 132.], the IC50 [1] is reported as “in the range around 5500 nM”.

C[C@H](CCC(=O)N1CCN(C(=O)c2ccnnc2)CC1)[C@H]1CC[C@H]2[C@@H]3CC=C4C[C@@H](O)CC[C@]4(C)[C@H]3CC[C@]12C [US20230340011, Example 389.] was tested, and the IC50 [2] was no more than 250 nM.

COC(=O)N1CCN(C(=O)CCC[C@H]2CC[C@H]3[C@@H]4CC=C5C[C@@H](O)CC[C@]5(C)[C@H]4CC[C@]23C)CC1 [US20230340011, Example 421.] was tested, and the IC50 [2] was no more than 250 nM.

Work on CCOC(=O)N1CCN(C(=O)CC[C@@H](C)[C@H]2CC[C@H]3[C@@H]4CC=C5C[C@@H](O)CC[C@]5(C)[C@H]4CC[C@]23C)CC1 [US20230340011, Example 422.] yielded an IC50 [2] of no more than 250 nM.
